Key:
[1] = molecular target: T1, Aromatase (Homo sapiens, UniProt P11511); assay: Inhibition of human aromatase extracted from placental microsomes using [1-3H]androstenedione as substrate
T1 sequence (P11511 whole entry): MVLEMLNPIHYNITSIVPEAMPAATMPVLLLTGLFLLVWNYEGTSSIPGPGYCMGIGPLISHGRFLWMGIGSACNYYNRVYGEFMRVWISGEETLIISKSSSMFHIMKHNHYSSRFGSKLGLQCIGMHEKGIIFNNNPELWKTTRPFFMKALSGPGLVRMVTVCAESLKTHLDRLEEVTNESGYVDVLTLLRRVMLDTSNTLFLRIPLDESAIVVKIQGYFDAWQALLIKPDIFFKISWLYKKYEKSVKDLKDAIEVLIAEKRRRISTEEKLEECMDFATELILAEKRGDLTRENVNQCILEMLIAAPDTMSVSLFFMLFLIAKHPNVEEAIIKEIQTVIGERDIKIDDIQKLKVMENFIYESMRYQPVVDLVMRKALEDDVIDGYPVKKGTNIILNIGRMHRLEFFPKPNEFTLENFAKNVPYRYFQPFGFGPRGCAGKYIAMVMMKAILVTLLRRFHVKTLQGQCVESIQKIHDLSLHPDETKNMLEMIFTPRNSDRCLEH

[2] = molecular target: T1, Aromatase; assay: Competitive inhibition of human placental aromatase in presence of testosterone
[3] = molecular target: T1, Aromatase; assay: Inhibition of human aromatase extracted from placental microsomes
[4] = molecular target: T1, Aromatase; assay: Inhibition of aromatase (unknown origin) at 50 uM
[5] = molecular target: T2, Aromatase (Rattus norvegicus, UniProt P22443); assay: Inhibition of rat aromatase extracted from ovarian fraction using testosterone as substrate
T2 sequence (P22443 whole entry): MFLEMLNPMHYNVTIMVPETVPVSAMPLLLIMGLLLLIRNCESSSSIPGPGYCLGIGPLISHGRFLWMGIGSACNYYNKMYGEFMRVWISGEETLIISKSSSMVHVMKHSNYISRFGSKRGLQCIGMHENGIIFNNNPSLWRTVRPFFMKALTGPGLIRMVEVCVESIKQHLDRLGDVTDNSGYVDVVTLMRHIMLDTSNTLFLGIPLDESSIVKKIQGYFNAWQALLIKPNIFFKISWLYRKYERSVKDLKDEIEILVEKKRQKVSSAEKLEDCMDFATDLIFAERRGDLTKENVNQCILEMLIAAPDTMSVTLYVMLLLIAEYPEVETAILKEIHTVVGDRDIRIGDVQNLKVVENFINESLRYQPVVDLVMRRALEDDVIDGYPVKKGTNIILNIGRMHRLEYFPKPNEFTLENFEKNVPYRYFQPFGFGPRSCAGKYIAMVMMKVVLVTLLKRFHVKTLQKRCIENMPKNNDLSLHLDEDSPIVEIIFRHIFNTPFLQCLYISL

[6] = molecular target: T1, Aromatase; assay: Inhibition of human aromatase extracted from placental microsomes using [1beta-3H]androstenedione as substrate after 15 mins by scintillation counting analysis
[7] = molecular target: T1, Aromatase; assay: Inhibition of human aromatase extracted from placental microsomes using [1beta-3H]androstenedione as substrate after 20 mins by scintillation counting analysis
[8] = molecular target: T2, Aromatase; assay: Inhibition of aromatase in denucleated ovarian fraction extracted from PMSG pretreated Wistar rat using testosterone as substrate at 50 uM by radioimmuno assay
[9] = molecular target: T1, Aromatase; assay: Inhibition of human aromatase extracted from placental microsomes using [1,2-3H]androstenedione as substrate after 20 mins by scintillation counting analysis
[10] = molecular target: T1, Aromatase; assay: Time dependent inhibition of human aromatase extracted from placental microsomes using [1beta,2beta-3H]-testosterone as substrate after 10 mins by scintillation counting analysis
[11] = molecular target: T1, Aromatase; assay: Time dependent inhibition of human aromatase extracted from placental microsomes using [1beta,2beta-3H]androstenedione as substrate by scintillation counting analysis
[12] = molecular target: T1, Aromatase; assay: Inhibition of aromatase (unknown origin) at 5 uM relative to control
[13] = molecular target: T1, Aromatase; assay: Inhibition of human aromatase extracted from placental microsomes using [1beta,2beta-3H]testosterone as substrate measured at 7 to 21 mins by scintillation counting analysis
[14] = molecular target: T1, Aromatase; assay: Irreversible inhibition of human aromatase extracted from placental microsomes; conditions: read-out: Ki(app)
[15] = molecular target: T1, Aromatase; assay: Inhibition of human aromatase extracted from placental microsomes using [1beta-3H]androstenedione as substrate after 20 mins by radiometric assay
[16] = Antitumor activity against NMU-induced mammary tumor in rat; type: functional
[17] = molecular target: T2, Aromatase; assay: Inhibition of aromatase in denucleated ovarian fraction extracted from PMSG pretreated Wistar rat by using testosterone as substrate at 1 uM
[18] = molecular target: T2, Aromatase; assay: Inhibition of aromatase in denucleated ovarian fraction extracted from PMSG pretreated Wistar rat using testosterone as substrate at 10 uM by radioimmuno assay
[19] = molecular target: T1, Aromatase; assay: Competitive inhibition of human aromatase extracted from placental microsomes by Dixon plot analysis in presence of [1,2-3H]androstenedione
[20] = molecular target: T1, Aromatase; assay: Inhibition of human aromatase extracted from placental microsomes using [1beta,2beta-3H]androstenedione as substrate
[21] = molecular target: T1, Aromatase; assay: Inhibition of human aromatase extracted from placental microsomes using [1-3H]androstenedione as substrate at […]
[22] = molecular target: T1, Aromatase; assay: Irreversible inhibition of human aromatase extracted from placental microsomes by double reciprocal plot analysis in presence of [1beta,2beta-3H]androstenedione
[23] = molecular target: T2, Aromatase; assay: Inhibition of aromatase in denucleated ovarian fraction extracted from PMSG pretreated Wistar rat by using testosterone as substrate after 15 mins by radio immuno assay
[24] = molecular target: T1, Aromatase; assay: Inhibition of human aromatase extracted from placental microsomes assessed as 3H2O formation from [1b,2b-3H] testosterone preincubated for 5 mins followed by protein addition measured at 7 to 21 mins by liquid scintillation counting analysis
[25] = molecular target: T1, Aromatase; assay: Inhibition of aromatase (unknown origin); parameters: inhibition (INH): concentration or dose not given beside the values; conditions: human
[26] = molecular target: T2, Aromatase; assay: Competitive inhibition of aromatase in ovarian fraction extracted from PMSG pretreated Wistar rat by double reciprocal plot analysis in presence of testosterone
[27] = test system: HeLa; assay: Cytotoxicity against human HeLa cells after 48 hrs by MTT assay; type: functional, cell-based
[28] = Cytotoxicity against human PC3 cells after 48 hrs by MTT assay; type: functional, cell-based; conditions: PC-3, 48 h
[29] = molecular target: T1, Aromatase
[30] = molecular target: T1, Aromatase; assay: Time dependent inactivation of human aromatase extracted from placental microsomes using [1,2-3H]androst-4-ene-3,17-dione

## C=C1C=C2CC[C@@H]3[C@H](CC[C@]4(C)C(=O)CC[C@@H]34)[C@@]2(C=O)CC1
[1]
  inhibition (INH): 50%

## C[C@]12CCC(=O)C3=C1C(=Nc1ccccc1S3)C[C@@H]1[C@@H]2CC[C@]2(C)C(=O)CC[C@@H]12
[2]
  IC50: 42300 nM

## C[C@]12CC[C@H]3[C@@H](Cc4n[nH]c5c4[C@]3(C)CCC5=O)[C@@H]1CC[C@@H]2O
[3]
  IC50: 236 nM

## C[C@]12CCC(=O)C=C1C(=O)C[C@@H]1[C@@H]2CC[C@]2(C)/C(=C/c3ccccn3)CC[C@@H]12
[4]
  inhibition at 50 µM: 108%

## C[C@]12C=CC(=O)C=C1C=C[C@@H]1[C@@H]2CC[C@@]2(C)[C@H]1CC[C@@]2(O)Cc1ccccn1
[5]
  inhibition (INH): 51.5%

## C[C@]12CC[C@H](O)C(N=[N+]=[N-])=C1CC[C@@H]1[C@@H]2CC[C@]2(C)/C(=N/O)CC[C@@H]12
[6]
  INH: 32.8%

## C[C@]12CC[C@H]3[C@@H](Cc4nn(Cc5ccccc5)c5c4[C@]3(C)CCC5=O)[C@@H]1CC[C@@H]2O
[3]
  IC50: 245 nM

## C[C@]12C=CC(=O)C=C1CC[C@@H]1[C@@H]2CC[C@]2(C)C(=O)/C(=C/c3ccc4c(c3)OCO4)C[C@@H]12
[7]
  IC50: 6400 nM

## C[C@]12CC[C@@H]3c4ccc(OCc5ccccc5)cc4CC[C@H]3[C@@H]1CC(=O)OC2
[8]
  inhibition at 50 µM: 26.7%

## C[C@]12CCC(=O)C=C1[C@@H](OC(=O)CBr)C[C@@H]1[C@@H]2CC[C@]2(C)C(=O)CC[C@@H]12
[9]
  IC50: 2800 nM

## CS[C@]12C=CC(=O)C=C1CC[C@H]1[C@@H]3CC[C@H](O)[C@@]3(C)CC[C@@H]12
[10]
  Ki: 610 nM

## C[C@]12CC[C@H]3[C@@H](CCC4=CC(=O)CC[C@@]43CS)[C@@H]1CCC2=O
[11]
  Ki: 34 nM

## CC(=O)O[C@H]1CC[C@@]2(C)C(=CC[C@H]3C(CC#N)[C@@](C)(CBr)CC[C@@H]32)C1 (some centres undefined)
[12]
  inhibition at 5 µM: 19.4%

## C[C@]12CC[C@H]3[C@@H](/C(=N/OCCCn4ccnc4)C=C4C[C@@H](O)CC[C@@]43C)[C@@H]1CC[C@@H]2O
[13]
  IC50: 3100 nM

## C[C@]12CCC(=O)C(O)=C1CC[C@@H]1[C@@H]2CC[C@]2(C)C(=O)CC[C@@H]12 [FORMESTANE]
[14]
  Ki: 43 nM
[15]
  IC50: 1200 nM
[16]
  Activity: 67%
[17]
  inhibition at 1 µM: 99.2%

## C=C1C=C2CC[C@@H]3[C@H](CC[C@]4(C)C(=O)CC[C@@H]34)[C@@]2(CO)CC1
[1]
  inhibition (INH): 80%

## C[C@]12CC[C@@H]3c4ccc(O)cc4CC[C@H]3[C@@H]1CC(=O)OC2
[18]
  inhibition at 10 µM: 1.5%

## CC(=O)O[C@H]1CC[C@@]2(C)C(=C/C(=N\OCCCn3ccnc3)[C@H]3[C@@H]4CC[C@H](OC(C)=O)[C@@]4(C)CC[C@@H]32)C1
[13]
  IC50: 12000 nM

## C[C@]12CC[C@H]3[C@@H](CCC4=CCCC[C@@]43CO)[C@@H]1CCC2=O
[19]
  Ki: 12.5 nM

## CSCC[C@]12CCC(=O)C=C1CC[C@@H]1C2=CC[C@]2(C)C(=O)CC[C@@H]12
[20]
  IC50: 12 nM

## C[C@]12CCC(=O)C=C1C[C@@H](Sc1ccc(Br)cc1)[C@@H]1[C@@H]2CC[C@]2(C)C(=O)CC[C@@H]12
[21]
  inhibition at […]: 45%

## C[C@]12CC[C@H]3[C@@H](CCC4=CC(=O)CC[C@@]43S)[C@@H]1CC[C@@H]2O
[22]
  Ki: 106 nM

## C[C@@H]1OC(=O)C[C@H]2[C@@H]3CCC4=CC(=O)CC[C@]4(C)[C@H]3CC[C@]12C
[23]
  IC50: 280 nM

## C[C@]12CCC(=O)C=C1CC[C@@H]1[C@@H]2CC[C@@]2(C)[C@H]1CC[C@@]2(O)Cc1ccccn1
[5]
  inhibition (INH): 51.5%

## C[C@]12CCC(=O)C=C1C[C@@H](Sc1ccc(Cl)cc1)[C@@H]1[C@@H]2CC[C@]2(C)C(=O)CC[C@@H]12
[21]
  inhibition at […]: 45%

## COc1cc(/C=C2\C[C@H]3[C@@H]4CCC5=CC(=O)CC[C@]5(C)[C@H]4CC[C@]3(C)C2=O)ccc1OCCCn1ccnc1
[24]
  IC50: 4400 nM

## CC(=O)[C@@]1(C)CC[C@H]2[C@@H](CCC3=CC(=O)CC[C@@]32C)C1CC#N (some centres undefined)
[25]
  inhibition (INH): 46.5%
[26]
  Ki: 270 nM

## C[C@@H]1OC(=O)C[C@H]2[C@@H]3C=C[C@H]4C[C@@H](O)CC[C@]4(C)[C@H]3CC[C@]12C
[23]
  IC50: 250 nM

## C[C@]12CC=C3[C@@H](CCC4=CC(=O)CC[C@@]43CCSCF)[C@@H]1CCC2=O
[20]
  IC50: 50 nM

## C=C1C[C@@H]2[C@H]([C@H](O)C[C@]3(C)C(=O)CC[C@@H]23)[C@@]2(C)C=CC(=O)C=C12
[27]
  IC50: 16800 nM
[28]
  IC50: 24900 nM

## C[C@]12C=CC(=O)C=C1C=C(c1ccccc1)[C@@H]1[C@@H]2CC[C@]2(C)C(=O)CC[C@@H]12
[29]
  Ki: 2220 nM

## C[C@]12C=CC(=O)C=C1C=C(CCc1ccccc1)[C@@H]1[C@@H]2CC[C@]2(C)C(=O)CC[C@@H]12
[29]
  Ki: 172 nM

## C[C@]12CCC(=O)C(O)=C1C=C[C@@H]1[C@@H]2CC[C@]2(C)/C(=C/c3ccccn3)CC[C@@H]12
[4]
  inhibition at 50 µM: 92%

## C[C@]12CC[C@H]3[C@@H](CCC4=CC(=O)CC[C@@]43C(F)F)[C@@H]1CCC2=O
[30]
  Ki: 1000 nM

Reference: ChEMBL document CHEMBL3751755, “Developing steroidal aromatase inhibitors-an effective armament to win the battle against breast cancer” (Eur J Med Chem, 2015)
